Measurements from the NIST ThermoML archive (doi:10.1016/j.jct.2015.11.027).

Details: Liquid, Vibrating wire viscometry

Cc1ccccc1C [1,2-dimethylbenzene]
Details | viscosity [mPa·s]
273.48 K, 100 kPa | 1.102
273.48 K, 1000 kPa | 1.113
273.48 K, 5000 kPa | 1.154
273.48 K, 10000 kPa | 1.209
273.48 K, 15000 kPa | 1.264
273.48 K, 20000 kPa | 1.319
273.48 K, 25000 kPa | 1.378
273.48 K, 30000 kPa | 1.436
283.21 K, 10000 kPa | 1.031
283.21 K, 15000 kPa | 1.075
283.21 K, 20000 kPa | 1.121
283.21 K, 25000 kPa | 1.169
283.21 K, 30000 kPa | 1.216
283.22 K, 100 kPa | 0.9464
283.22 K, 1000 kPa | 0.9529
283.22 K, 5000 kPa | 0.9859
293.04 K, 100 kPa | 0.8196
293.04 K, 1000 kPa | 0.8252
293.04 K, 5000 kPa | 0.8535
293.04 K, 10000 kPa | 0.8901
293.05 K, 15000 kPa | 0.9269
293.05 K, 20000 kPa | 0.9685
293.05 K, 25000 kPa | 1.006
293.06 K, 30000 kPa | 1.048
302.87 K, 100 kPa | 0.7178
302.87 K, 1000 kPa | 0.7228
302.87 K, 20000 kPa | 0.8457
302.87 K, 25000 kPa | 0.879
302.87 K, 30000 kPa | 0.9126
302.88 K, 5000 kPa | 0.7489
302.88 K, 10000 kPa | 0.7794
302.88 K, 15000 kPa | 0.8128
312.66 K, 100 kPa | 0.6371
312.66 K, 10000 kPa | 0.6901
312.66 K, 20000 kPa | 0.7486
312.66 K, 25000 kPa | 0.7781
312.66 K, 30000 kPa | 0.8077
312.67 K, 1000 kPa | 0.6414
312.67 K, 5000 kPa | 0.6635
312.67 K, 15000 kPa | 0.7185
321.85 K, 100 kPa | 0.5744
321.85 K, 1000 kPa | 0.5794
321.85 K, 10000 kPa | 0.6241
321.85 K, 15000 kPa | 0.6489
321.85 K, 30000 kPa | 0.7248
321.86 K, 5000 kPa | 0.5991
321.86 K, 20000 kPa | 0.6748
321.86 K, 25000 kPa | 0.6987
332.47 K, 100 kPa | 0.515
332.47 K, 1000 kPa | 0.5176
332.48 K, 5000 kPa | 0.5347
332.48 K, 10000 kPa | 0.5575
332.48 K, 15000 kPa | 0.5798
332.48 K, 20000 kPa | 0.6029
332.48 K, 25000 kPa | 0.6273
332.48 K, 30000 kPa | 0.6504
343.06 K, 100 kPa | 0.4586
343.07 K, 1000 kPa | 0.4624
343.07 K, 5000 kPa | 0.4782
343.07 K, 10000 kPa | 0.499
343.08 K, 15000 kPa | 0.5195
343.08 K, 25000 kPa | 0.5603
343.08 K, 30000 kPa | 0.5817
343.09 K, 20000 kPa | 0.5401
353.01 K, 30000 kPa | 0.5312
353.02 K, 10000 kPa | 0.4549
353.02 K, 15000 kPa | 0.4725
353.02 K, 20000 kPa | 0.4922
353.02 K, 25000 kPa | 0.5113
353.03 K, 5000 kPa | 0.4342
353.04 K, 100 kPa | 0.4177
353.04 K, 1000 kPa | 0.4196
362.85 K, 100 kPa | 0.3838
362.85 K, 1000 kPa | 0.3862
362.85 K, 5000 kPa | 0.4001
362.85 K, 10000 kPa | 0.4169
362.86 K, 15000 kPa | 0.434
362.86 K, 20000 kPa | 0.4506
362.87 K, 25000 kPa | 0.469
362.87 K, 30000 kPa | 0.4842
372.83 K, 100 kPa | 0.3528
372.84 K, 1000 kPa | 0.3556
372.84 K, 5000 kPa | 0.3683
372.85 K, 10000 kPa | 0.3831
372.85 K, 25000 kPa | 0.4324
372.86 K, 15000 kPa | 0.4015
372.86 K, 20000 kPa | 0.4156
372.86 K, 30000 kPa | 0.4477

Cc1cccc(C)c1 [1,3-dimethylbenzene]
Details | viscosity [mPa·s]
273.54 K, 10000 kPa | 0.8601
273.54 K, 25000 kPa | 0.9681
273.54 K, 30000 kPa | 1.008
273.55 K, 1000 kPa | 0.8029
273.55 K, 5000 kPa | 0.8274
273.55 K, 15000 kPa | 0.8952
273.55 K, 20000 kPa | 0.9293
273.56 K, 100 kPa | 0.7948
283.24 K, 100 kPa | 0.7
283.24 K, 10000 kPa | 0.7574
283.25 K, 1000 kPa | 0.707
283.25 K, 5000 kPa | 0.7291
283.25 K, 15000 kPa | 0.7883
283.25 K, 20000 kPa | 0.8196
283.25 K, 25000 kPa | 0.853
283.25 K, 30000 kPa | 0.8858
293.06 K, 1000 kPa | 0.6255
293.06 K, 20000 kPa | 0.7224
293.06 K, 25000 kPa | 0.7497
293.07 K, 100 kPa | 0.6215
293.07 K, 5000 kPa | 0.644
293.07 K, 10000 kPa | 0.6692
293.07 K, 15000 kPa | 0.6957
293.07 K, 30000 kPa | 0.7757
302.87 K, 30000 kPa | 0.6903
302.88 K, 5000 kPa | 0.5751
302.88 K, 25000 kPa | 0.6673
302.89 K, 15000 kPa | 0.6204
302.9 K, 100 kPa | 0.5542
302.9 K, 1000 kPa | 0.5571
302.9 K, 10000 kPa | 0.598
302.9 K, 20000 kPa | 0.645
313.29 K, 1000 kPa | 0.4982
313.3 K, 100 kPa | 0.4952
313.3 K, 5000 kPa | 0.5142
313.3 K, 10000 kPa | 0.5341
313.31 K, 15000 kPa | 0.5548
313.31 K, 20000 kPa | 0.5757
313.31 K, 25000 kPa | 0.5968
313.31 K, 30000 kPa | 0.618
323 K, 10000 kPa | 0.4847
323.01 K, 100 kPa | 0.4499
323.01 K, 1000 kPa | 0.4531
323.01 K, 5000 kPa | 0.467
323.02 K, 15000 kPa | 0.5032
323.02 K, 20000 kPa | 0.522
323.02 K, 25000 kPa | 0.5411
323.02 K, 30000 kPa | 0.5599
333.1 K, 100 kPa | 0.4087
333.11 K, 1000 kPa | 0.411
333.11 K, 5000 kPa | 0.4237
333.11 K, 10000 kPa | 0.4414
333.11 K, 15000 kPa | 0.4585
333.11 K, 20000 kPa | 0.4756
333.12 K, 25000 kPa | 0.4931
333.12 K, 30000 kPa | 0.5101
342.97 K, 20000 kPa | 0.4363
342.97 K, 25000 kPa | 0.4516
342.97 K, 30000 kPa | 0.4678
342.98 K, 100 kPa | 0.3731
342.98 K, 1000 kPa | 0.3761
342.98 K, 5000 kPa | 0.3882
342.98 K, 10000 kPa | 0.4036
342.98 K, 15000 kPa | 0.4205
352.88 K, 20000 kPa | 0.4014
352.88 K, 25000 kPa | 0.4162
352.88 K, 30000 kPa | 0.431
352.89 K, 100 kPa | 0.3436
352.89 K, 1000 kPa | 0.346
352.89 K, 5000 kPa | 0.3581
352.89 K, 10000 kPa | 0.3728
352.89 K, 15000 kPa | 0.3867
362.69 K, 100 kPa | 0.3175
362.7 K, 1000 kPa | 0.32
362.7 K, 5000 kPa | 0.3307
362.7 K, 10000 kPa | 0.3452
362.71 K, 15000 kPa | 0.3587
362.71 K, 20000 kPa | 0.3726
362.71 K, 25000 kPa | 0.3859
362.71 K, 30000 kPa | 0.3995
372.5 K, 100 kPa | 0.2936
372.5 K, 1000 kPa | 0.2964
372.51 K, 5000 kPa | 0.307
372.51 K, 10000 kPa | 0.3199
372.51 K, 15000 kPa | 0.3331
372.51 K, 20000 kPa | 0.3463
372.51 K, 25000 kPa | 0.3587
372.51 K, 30000 kPa | 0.3715
